System: amylase Stainzyme® 12,0 1
Assay: Residual amylolytic activity after storage in a liquid washing agent (starch / dinitrosalicylic acid)
Type: biochemical
Conditions: 1 wt % stabilizer, 4 weeks at 30° C., initial activity 100%
From the text: A liquid washing agent of the following composition serves as a baseline washing agent formulation (all indications in percent by weight): 0.3 to 0.5% xanthan, 0.2 to 0.4% antifoaming agent, 6 to 7% glycerol, 0.3 to 0.5% ethanol, 4 to 7% FAEOS (fatty alcohol ether sulfate), 24 to 28% nonionic surfactants, 1 to 2% sodium citrate (dihydrate), 2 to 4% soda, 14 to 16% coconut fatty acids, 0.5% HEDP (1-hydroxyethane-(1,1-diphosphonic acid)), 0 to 0.4% PVP (polyvinylpyrrolidone), 0 to 0.05% optical brightener, 0 to 0.001% dye, remainder demineralized water.
The monosaccharide glycerate glucosyl glycerate was incorporated, as the component stabilizing the hydrolytic enzyme, into the baseline washing agent formulation according to Example 2 (see Table 2, indications in this regard in wt %). […] The amylase used was the Stainzyme® 12,0 1 product of the company Novozymes A/S. The amylase was used in the washing agent either alone or in combination with the protease of Example 2 (utilization quantity: 1.0 wt % amylase and/or 1.0 wt % protease, respectively active substance).
After storage, the respective residual amylolytic activity was determined by incubating the samples under defined reaction conditions (tris-maleate buffer, pH 6.5, 50° C., 15 min) with 0.67% starch (FLUKA no. 85642, from potatoes, soluble, pretreated per Zulkowsky (treated with glycerol at 190° C.)). […]

- residual amylolytic activity after storage (with protease (1.0 wt %)): 92%
- residual amylolytic activity after storage (without protease): 97%
Compound: OB(O)O [boric acid]

Reference: US8592359B2 (priority 2010, dated 2013)
